According to patent US6716582B2 (priority 2000, dated 2004):
Several values for one entry are separate records, joined by “and”; a condition that tells them apart may be missing. Equal entries are not always repeated.

System: LuxArray 1.0 luxCDABE gene fusions
Assay: LuxArray 1.0 solid phase nalidixic acid perturbation
Type: cell-based, E. coli
Conditions: for Solid expt NA/LB: NA 5 μg/ml; for fold upregulation, nalidixic acid treated to untreated: solid LuxArray, 5 μg/ml, 4 hours
Description: The E. coli strains were grown overnight at 37° C. in 40 μl LB medium supplemented with 100 μg/ml ampicillin in a set of sixteen 96-well dishes. These cultures were designated “printing plates” and were used as the cell source to manufacture the arrays. Porous membranes (Biodyne B, Nunc) were sterilized with UV illumination for 10 min then placed in contact with pre-warmed of solid LB growth media in a culture dish (OmniTray, Nunc). Printing of 4×4 subarrays was accomplished using a BioMek 2000 (Beckman Coulter) equipped with a High Density Replication Tool (HDRT). […] After sterilization, the pins are air-dried prior to the next transfer. The E. coli strains in the LuxArray were printed onto an approximately 8×12 cm membrane in two sets of triplicates.
Arrays were printed from fresh overnight cultures onto membranes on plates containing LB media. After 6 hr of growth at 37° C. membranes were moved to pre-warmed plates containing either LB media or LB media supplemented with 5 μg/ml nalidixic acid then replaced at 37° C. to continue growing. Images were collected for each array every two hours from 0-8 hr after relocation using a cooled CCD camera (Fluor Chem 8000: f0.85 lens, 2 min exposure, AlphaInnotech).
Spot intensity of each image was determined using ArrayVision™ (Imaging Research, Toronto, Canada) and the resultant pixel density measurements imported into a template with identifiers for each spot. The average signal for each of the triplicate spots was calculated. The background signal, which results from cross illumination of neighboring spots, was calculated by finding the median of the 24 spots containing a strain with the parental plasmid on each of the triplicate arrays and the calculating the average of the three medians. This background signal was calculated at each of the time points and subtracted from each measurement at the corresponding time point. All negative numbers were converted to zero.
Data normalization to account for inhibition of growth by nalidixic acid was accomplished by finding the sum of the averaged signals of each spot in the array for each treatment at each time point. A normalization factor (NF) was calculated as follows:
NF=Total array signal (time zero, LB control)/Total array signal (time x, condition y)
Each measurement was multiplied by NF to yield a normalized signal. Ratios the nalidixic acid treated spot to the corresponding control spot were calculated using the normalized data.
The ratios of the normalized data were compared for each of the […] spots resulting from independent cultures in the array. […] Twelve gene fusions were selected by these criteria (Table 15).

Structure (SMILES): CCn1cc(C(=O)O)c(=O)c2ccc(C)nc21 [Nalidixic acid, nalidixic acid]
- Solid expt NA/LB (dinG ybiB lux-a.pk0024.f5, t = 2 hr, duplicate spots): 2.5 and 3.4
- Solid expt NA/LB (dinG ybiB lux-a.pk0024.f5, t = 4 hr): 3.7 and 4.2
- Solid expt NA/LB (dinG ybiB lux-a.pk0024.f5, t = 6 hr): 3.5 and 3.1
- Solid expt NA/LB (dinG ybiB lux-a.pk0024.f5, t = 8 hr): 2.9 and 2.6
- Solid expt NA/LB (dinP lux-a.pk055.a3, t = 2 hr): 3.1 and 5.5
- Solid expt NA/LB (dinP lux-a.pk055.a3, t = 6 hr): 4.2 and 8.1
- Solid expt NA/LB (frvR frvX frvB frvA lux-a.pk046.e6, t = 2 hr): 2.8 and 2.1
- Solid expt NA/LB (frvR frvX frvB frvA lux-a.pk046.e6, t = 4 hr): 2.3
- Solid expt NA/LB (lpxA lpxB rnhB dnaE lux-a.pk061.c3, t = 2 hr): 3.5 and 2.7
- Solid expt NA/LB (lpxA lpxB rnhB dnaE lux-a.pk061.c3, t = 4 hr): 3.1 and 3.5
- Solid expt NA/LB (lpxA lpxB rnhB dnaE lux-a.pk061.c3, t = 6 hr): 2.8 and 3.0
- Solid expt NA/LB (lpxA lpxB rnhB dnaE lux-a.pk061.c3, t = 8 hr): 1.7 and 1.9
- Solid expt NA/LB (lux-a.pk0015.d6, t = 2 hr): 2.3 and 2.2
- Solid expt NA/LB (lux-a.pk0015.d6, t = 4 hr): 6.4 and 4.1
- Solid expt NA/LB (lux-a.pk0015.d6, t = 6 hr): 2.7 and 1.9
- Solid expt NA/LB (lux-a.pk0015.d6, t = 8 hr): 0.6 and 0.8
- Solid expt NA/LB (lux-a.pk0019.g1, t = 2 hr): 2.5 and 4.4
- Solid expt NA/LB (lux-a.pk0019.g1, t = 4 hr): 7.7 and 8.2
- Solid expt NA/LB (lux-a.pk0019.g1, t = 6 hr): 9.7 and 15.5
- Solid expt NA/LB (lux-a.pk0019.g1, t = 8 hr): 7.1 and 10.2
- Solid expt NA/LB (lux-a.pk033.c5, t = 2 hr): 3.7 and 2.1
- Solid expt NA/LB (lux-a.pk033.c5, t = 4 hr): 4.3 and 3.1
- Solid expt NA/LB (lux-a.pk033.c5, t = 6 hr): 3.2 and 3.3
- Solid expt NA/LB (lux-a.pk033.c5, t = 8 hr): 2.6 and 2.5
- Solid expt NA/LB (oraA lux-a.pk058.f5, t = 2 hr): 5.1 and 4.7
- Solid expt NA/LB (oraA lux-a.pk058.f5, t = 4 hr): 7.9 and 7.7
- Solid expt NA/LB (oraA lux-a.pk058.f5, t = 6 hr): 5.9 and 5.6
- Solid expt NA/LB (oraA lux-a.pk058.f5, t = 8 hr): 3.9 and 3.8
- fold upregulation, nalidixic acid treated to untreated (ruvA-lux, duplicate spots): 1.7 fold and 2.1 fold
- Solid expt NA/LB (uvrA lux-a.pk0001.b6, t = 2 hr): 2.5 and 2.9
- Solid expt NA/LB (uvrA lux-a.pk0001.b6, t = 4 hr): 2.3 and 2.4
- Solid expt NA/LB (uvrA lux-a.pk0001.b6, t = 6 hr): 1.6 and 1.1
- Solid expt NA/LB (uvrA lux-a.pk0001.b6, t = 8 hr): 1.0 and 0.6
- fold upregulation, nalidixic acid treated to untreated (uvrD-lux, duplicate spots): 1.6 fold and 1.9 fold
- Solid expt NA/LB (yaaF lux-a.pk031.e7, t = 2 hr): 2.1 and 2.0
- Solid expt NA/LB (yaaF lux-a.pk031.e7, t = 4 hr): 2.0 and 2.1
- Solid expt NA/LB (yaaF lux-a.pk031.e7, t = 6 hr): 1.3 and 1.8
- Solid expt NA/LB (yaaF lux-a.pk031.e7, t = 8 hr): 1.0 and 1.5
- Solid expt NA/LB (yfhJ fdx hscA yfhE lux-a.pk0019.g2, t = 2 hr): 2.1
- Solid expt NA/LB (yfhJ fdx hscA yfhE lux-a.pk0019.g2, t = 4 hr): 2.0 and 2.2
- Solid expt NA/LB (yfhJ fdx hscA yfhE lux-a.pk0019.g2, t = 6 hr): 1.7 and 1.5
- Solid expt NA/LB (yfhJ fdx hscA yfhE lux-a.pk0019.g2, t = 8 hr): 1.4 and 1.3
- Solid expt NA/LB (yigN lux-a.pk046.f11, t = 4 hr): 2.5 and 4.3
